Data reported in patent US7772241B2, “Variolin derivatives and their use as antitumor agents” (Pharma Mar S.A., priority 2001, dated 2010).

Legend:
[1] = tested on: HT-29; test: Inhibition of cells growth by colorimetric (SRB) assay, HT-29; conditions: for GI50 / CC50: Homo sapiens, HT-29, 48 h; for GI50: read-out: GI50 HT-29, SRB assay, 48 hours exposure; for CC50: read-out: LC50 HT-29, SRB assay, 48 hours exposure; for TGI HT-29: SRB assay, 48 hours exposure
From the text: (§1) The finality of these assays is to interrupt the growth of a “in vitro” tumor cell culture by means a continued exhibition of the cells to the sample to be testing.
(§2) This form of the assay employs 96 well cell culture microplates of 9 mm diameter (Faircloth, 1988; Mosmann, 1983). Most of the cell lines are obtained from American Type Culture Collection (ATCC) derived from different human cancer types.
(§3) Cells are maintained in RPMI 1640 10% FBS, supplemented with 0.1 g/l penicillin and 0.1 g/l streptomycin sulphate and then incubated at 37° C., 5% CO2 and 98% humidity. For the experiments, cells were harvested from subconfluent cultures using trypsin and resuspended in fresh medium before plating.
(§4) Cells are seeded in 96 well microtiter plates, at 5×10^3 cells per well in aliquots of 195 μl medium, and they are allowed to attach to the plate surface by growing in drug free medium for 18 hours. Afterward, samples are added in aliquots of 5 μl in a ranging from 10 to 10^−8 μg/ml, dissolved in DMSO/EtOH/PBS (0.5:0.5:99). After 48 hours exposure, the antitumor effect are measured by the SRB methodology: cells are fixed by adding 50 μl of cold 50% (wt/vol) trichloroacetic acid (TCA) and incubating for 60 minutes at 4° C. Plates are washed with deionized water and dried. One hundred μl of SRB solution (0.4% wt/vol in 1% acetic acid) is added to each microtiter well and incubated for 10 minutes at room temperature. Unbound SRB is removed by washing with 1% acetic acid. Plates are air dried and bound stain is solubilized with Tris buffer. Optical densities are read on a automated spectrophotometric plate reader at a single wavelength of 490 nm.
(§5) The values for mean +/−SD of data from triplicate wells are calculated. Some parameters for cellular responses can be calculated: GI=growth inhibition, TGI=total growth inhibition (cytostatic effect) and LC=cell killing (cytotoxic effect).

[2] = tested on: A-549; test: Inhibition of cells growth by colorimetric (SRB) assay, A-549; conditions: for GI50 / CC50: Homo sapiens, A549, 48 h; for GI50: read-out: GI50 A-549, SRB assay, 48 hours exposure; for CC50: read-out: LC50 A-549, SRB assay, 48 hours exposure; for TGI A-549: SRB assay, 48 hours exposure
From the text: as §1, §2, §3, §4, §5

Row | SMILES | GI50 [1] [µM] | CC50 [1] [µM] | TGI HT-29 [1] | GI50 [2] [µM] | CC50 [2] [µM] | TGI A-549 [2]
1 | CSc1nccc(-c2c3cccnc3n3c(SC)nccc23)n1 [Compound 9] | 9.16 | 25.7 | 2.57E−05 | 5.9 | 29.5 | 1.18E−05
2 | CSc1nccc(-c2c3cc4ccccc4nc3n3c(SC)nccc23)n1 [Compound 17a] | ≥ 25.7 | 129 | 7.71E−05 | ≥ 25.7 | 129 | 7.71E−05
3 | COc1ccc2nc3c(cc2c1)c(-c1ccnc(SC)n1)c1ccnc(SC)n13 [Compound 17b] | 7.16 | 19.1 | 1.19E−05 | 7.16 | 19.1 | 1.19E−05
4 | CSc1nccc(-c2c3ccc(C)nc3n3c(SC)nccc23)n1 [Compound 22] | 2.83 | 19.8 | 8.50E−06 | 0.85 | 22.7 | 2.27E−06
5 | CSc1nccc(-c2c3cccnc3n3c(N)nccc23)n1 [Compound 25] | 0.974 | ≥ 162 | 9.74E−07 | 0.649 | ≥ 162 | 3.25E−07
6 | c1ccc(CNc2nccc(-c3c4cccnc4n4c(NCc5ccccc5)nccc34)n2)cc1 [Compound 28] | 109 | 109 | 1.09E−04 | 109 | 109 | 1.09E−04
7 | CSc1nccc(-c2c3c(OCc4ccccc4)ccnc3n3c(SC)nccc23)n1 [Compound 52] | 5.36 | 15.7 | 9.20E−06 | 5.81 | 15.7 | 9.56E−06
